{
  "source": "BindingDB's records for doi:10.1016/j.bmc.2019.01.012",
  "about": "(University of Education, 2019)",
  "key": {"[1]": {"target": "Acetylcholinesterase (Homo sapiens, UniProt P22303)", "sequence (P22303 whole entry)": "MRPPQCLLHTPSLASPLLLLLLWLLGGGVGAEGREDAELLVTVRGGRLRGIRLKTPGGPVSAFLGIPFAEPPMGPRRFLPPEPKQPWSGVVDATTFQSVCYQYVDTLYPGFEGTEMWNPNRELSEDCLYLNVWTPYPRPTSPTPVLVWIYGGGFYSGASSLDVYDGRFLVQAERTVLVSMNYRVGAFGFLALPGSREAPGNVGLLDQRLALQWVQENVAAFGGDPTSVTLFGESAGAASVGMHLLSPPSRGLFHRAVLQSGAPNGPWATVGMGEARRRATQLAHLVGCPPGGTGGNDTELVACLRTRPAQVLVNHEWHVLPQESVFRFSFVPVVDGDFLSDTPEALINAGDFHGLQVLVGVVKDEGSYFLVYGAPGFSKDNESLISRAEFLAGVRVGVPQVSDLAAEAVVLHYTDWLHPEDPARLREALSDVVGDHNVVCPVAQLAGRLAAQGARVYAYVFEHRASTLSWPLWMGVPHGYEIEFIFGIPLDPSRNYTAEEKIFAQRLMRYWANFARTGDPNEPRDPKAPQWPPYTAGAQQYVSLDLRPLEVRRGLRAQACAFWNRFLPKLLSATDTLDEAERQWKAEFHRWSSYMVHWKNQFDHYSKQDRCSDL", "test": "Inhibition of AChE (unknown origin) using […] as substrate by Ellman method"}, "[2]": {"target": "Cholinesterase (Homo sapiens, UniProt P06276)", "sequence (P06276 whole entry)": "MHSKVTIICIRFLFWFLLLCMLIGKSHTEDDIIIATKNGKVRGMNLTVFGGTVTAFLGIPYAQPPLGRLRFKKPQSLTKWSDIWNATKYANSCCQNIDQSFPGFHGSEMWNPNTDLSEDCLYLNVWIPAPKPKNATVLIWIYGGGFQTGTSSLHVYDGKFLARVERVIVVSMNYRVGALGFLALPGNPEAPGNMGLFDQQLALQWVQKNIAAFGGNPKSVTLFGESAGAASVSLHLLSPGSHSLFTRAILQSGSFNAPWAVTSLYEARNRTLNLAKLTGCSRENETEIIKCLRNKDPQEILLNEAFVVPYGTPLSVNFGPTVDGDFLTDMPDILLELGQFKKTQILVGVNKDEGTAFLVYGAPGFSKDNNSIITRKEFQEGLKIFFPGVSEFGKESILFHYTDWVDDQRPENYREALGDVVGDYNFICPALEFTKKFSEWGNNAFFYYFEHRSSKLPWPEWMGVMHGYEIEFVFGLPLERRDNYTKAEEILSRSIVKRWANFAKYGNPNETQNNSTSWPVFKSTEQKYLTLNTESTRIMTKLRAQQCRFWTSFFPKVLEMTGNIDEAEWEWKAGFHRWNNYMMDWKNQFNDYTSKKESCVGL", "test": "Inhibition of BuChE (unknown origin) using butyrylthiocholine bromide as substrate by Ellman method"}},
  "data": [
    {"smiles": "CC(C)Cc1ccc(C(C)C(=O)NS(=O)(=O)c2ccc(N)cc2)cc1", "note": "(stereo not given)", "values": [
      {"measurement": "IC50", "setting": "[1]", "result": "< 600", "unit": "µM"},
      {"measurement": "IC50", "setting": "[2]", "result": 214, "unit": "µM"}
    ]},
    {"smiles": "CC(C)Cc1ccc([C@H](C)C(=O)O)cc1", "note": "[(RS)-ibuprofen]", "values": [
      {"measurement": "IC50", "setting": "[1]", "result": 235, "unit": "µM"},
      {"measurement": "IC50", "setting": "[2]", "result": "< 600", "unit": "µM"}
    ]},
    {"smiles": "Nc1ccc(S(N)(=O)=O)cc1", "note": "[aromatic sulfonamide compound 5]", "values": [
      {"measurement": "IC50", "setting": "[2]", "result": 138, "unit": "µM"}
    ]}
  ]
}
